In ChEMBL document CHEMBL1201862, “PubChem BioAssay data set” (2004):
Active and inactive are the calls of the source.

Legend:
[1] = Luminescence Cell-Based Dose Retest to Confirm Inhibitors of Cancer Stem Cells. [Related pubchem assays (depositor defined):AID2717, AID2721]; format: functional; settings: Homo sapiens
Cytochrome P450 3A4 = Cytochrome P450 3A4 (Homo sapiens, UniProt P08684);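 also: CYP3A4 tested as one member of a cytochrome P450 panel screen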
Cytochrome P450 2C9 = Cytochrome P450 2C9 (Homo sapiens, UniProt P11712)
Cytochrome P450 2C9, sequence (P11712 whole entry, the tested form may be a part): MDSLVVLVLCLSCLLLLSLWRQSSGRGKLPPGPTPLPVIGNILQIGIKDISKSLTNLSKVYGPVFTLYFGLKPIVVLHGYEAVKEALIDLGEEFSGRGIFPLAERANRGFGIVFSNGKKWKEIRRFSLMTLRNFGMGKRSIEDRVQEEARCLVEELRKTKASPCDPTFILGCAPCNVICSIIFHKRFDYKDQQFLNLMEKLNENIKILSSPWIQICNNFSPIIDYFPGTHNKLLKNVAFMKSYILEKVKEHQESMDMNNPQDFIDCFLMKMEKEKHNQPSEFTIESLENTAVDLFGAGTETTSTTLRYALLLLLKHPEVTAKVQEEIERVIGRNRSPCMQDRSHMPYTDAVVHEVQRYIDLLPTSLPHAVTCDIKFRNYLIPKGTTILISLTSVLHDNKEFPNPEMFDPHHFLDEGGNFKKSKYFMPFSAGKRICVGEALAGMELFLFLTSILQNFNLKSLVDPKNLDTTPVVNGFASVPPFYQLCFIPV

[2] = biological target: T1, RNA-binding protein pos-1 (Caenorhabditis elegans, UniProt G5EF15); test: inhibitors of POS-1/mex-3 RNA binding, dose response, biochemical, fluorescence polarization (AID 1964);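 also: purified POS-1 fused to maltose binding protein made in E. coli; potency of compounds blocking POS-1 binding to fluorescent RNA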
T1 sequence (G5EF15 whole entry): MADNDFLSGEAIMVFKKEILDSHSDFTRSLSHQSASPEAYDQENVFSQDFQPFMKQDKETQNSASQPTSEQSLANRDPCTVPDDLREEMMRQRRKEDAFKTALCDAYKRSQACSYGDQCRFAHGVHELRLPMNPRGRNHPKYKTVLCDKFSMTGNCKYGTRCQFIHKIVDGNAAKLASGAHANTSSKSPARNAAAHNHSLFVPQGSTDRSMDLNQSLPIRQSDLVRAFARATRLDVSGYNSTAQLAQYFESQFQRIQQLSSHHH

[3] = biological target: T2, Zinc finger protein mex-5 (Caenorhabditis elegans, UniProt Q9XUB2); test: MEX-5/TCR-2 RNA interaction inhibitors, dose response, biochemical, C. elegans, fluorescence polarization (AID 1960)
T2 sequence (Q9XUB2 whole entry): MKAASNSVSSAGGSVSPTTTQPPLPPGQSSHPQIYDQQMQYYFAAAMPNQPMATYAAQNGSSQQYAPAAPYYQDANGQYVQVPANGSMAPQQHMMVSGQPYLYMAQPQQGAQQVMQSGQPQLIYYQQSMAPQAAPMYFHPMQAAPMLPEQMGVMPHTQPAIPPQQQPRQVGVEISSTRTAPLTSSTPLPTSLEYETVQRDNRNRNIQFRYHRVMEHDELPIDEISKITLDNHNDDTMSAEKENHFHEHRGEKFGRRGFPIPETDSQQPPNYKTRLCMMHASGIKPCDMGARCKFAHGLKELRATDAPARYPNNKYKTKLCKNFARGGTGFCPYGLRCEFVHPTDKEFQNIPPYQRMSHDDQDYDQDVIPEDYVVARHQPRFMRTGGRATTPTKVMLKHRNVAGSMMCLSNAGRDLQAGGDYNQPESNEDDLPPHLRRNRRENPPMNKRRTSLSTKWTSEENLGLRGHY

Cytochrome P450 1A2 = biological target: T3, Cytochrome P450 1A2 (Homo sapiens, UniProt P05177);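 also: PubChem cytochrome P450 panel assay, CYP1A2 panel member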
T3 sequence (P05177 whole entry): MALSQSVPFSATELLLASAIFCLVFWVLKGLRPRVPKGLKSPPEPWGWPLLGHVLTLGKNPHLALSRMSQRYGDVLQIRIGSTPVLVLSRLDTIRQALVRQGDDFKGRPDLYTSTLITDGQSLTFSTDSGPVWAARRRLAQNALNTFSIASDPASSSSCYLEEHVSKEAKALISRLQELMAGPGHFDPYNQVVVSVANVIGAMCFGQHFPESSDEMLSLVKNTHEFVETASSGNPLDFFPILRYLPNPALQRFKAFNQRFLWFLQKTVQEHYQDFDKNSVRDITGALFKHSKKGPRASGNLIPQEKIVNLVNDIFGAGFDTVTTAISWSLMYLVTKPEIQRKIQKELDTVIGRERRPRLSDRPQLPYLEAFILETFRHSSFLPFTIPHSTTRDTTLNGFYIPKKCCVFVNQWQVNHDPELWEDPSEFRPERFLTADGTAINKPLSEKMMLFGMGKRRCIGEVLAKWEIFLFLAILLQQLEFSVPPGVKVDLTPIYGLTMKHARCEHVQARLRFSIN

Cytochrome P450 2C19 = Cytochrome P450 2C19 (Homo sapiens, UniProt P33261); test: Cytochrome panel assay with activity outcomes. Panel member name: p450-cyp2c19 Compounds with AC50 equal or less than 10 uM are considered active; format: functional; settings: read-out: AC50
Cytochrome P450 2C19, sequence (P33261 whole entry): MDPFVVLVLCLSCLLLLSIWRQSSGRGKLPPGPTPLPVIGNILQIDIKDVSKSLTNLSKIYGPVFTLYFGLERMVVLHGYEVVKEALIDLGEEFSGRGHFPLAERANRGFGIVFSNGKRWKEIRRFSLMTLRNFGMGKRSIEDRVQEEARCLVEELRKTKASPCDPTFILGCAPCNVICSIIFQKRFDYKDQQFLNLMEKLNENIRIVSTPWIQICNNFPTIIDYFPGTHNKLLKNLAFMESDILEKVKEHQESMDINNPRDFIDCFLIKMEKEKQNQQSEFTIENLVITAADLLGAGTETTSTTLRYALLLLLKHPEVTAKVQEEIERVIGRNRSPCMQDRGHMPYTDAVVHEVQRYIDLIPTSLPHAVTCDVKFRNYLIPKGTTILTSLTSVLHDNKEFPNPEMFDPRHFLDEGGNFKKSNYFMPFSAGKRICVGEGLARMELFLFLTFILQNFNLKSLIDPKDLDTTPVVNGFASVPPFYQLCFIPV

[4] = biological target: T4, Heat shock factor protein 1 (Mus musculus, UniProt P38532); test: HSF1 potentiators in luciferase reporter cells, confirmation, cell-based, NIH3T3, luminescence, dose retest (AID 435004); format: functional;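 also: stress induced by proteasome inhibitor MG132 added 30 min after compound; luciferase reporter driven by HSF1 response element in NIH3T3 cells; actives raise luminescence as potentiators of the MG132 stress response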
T4 sequence (P38532 whole entry): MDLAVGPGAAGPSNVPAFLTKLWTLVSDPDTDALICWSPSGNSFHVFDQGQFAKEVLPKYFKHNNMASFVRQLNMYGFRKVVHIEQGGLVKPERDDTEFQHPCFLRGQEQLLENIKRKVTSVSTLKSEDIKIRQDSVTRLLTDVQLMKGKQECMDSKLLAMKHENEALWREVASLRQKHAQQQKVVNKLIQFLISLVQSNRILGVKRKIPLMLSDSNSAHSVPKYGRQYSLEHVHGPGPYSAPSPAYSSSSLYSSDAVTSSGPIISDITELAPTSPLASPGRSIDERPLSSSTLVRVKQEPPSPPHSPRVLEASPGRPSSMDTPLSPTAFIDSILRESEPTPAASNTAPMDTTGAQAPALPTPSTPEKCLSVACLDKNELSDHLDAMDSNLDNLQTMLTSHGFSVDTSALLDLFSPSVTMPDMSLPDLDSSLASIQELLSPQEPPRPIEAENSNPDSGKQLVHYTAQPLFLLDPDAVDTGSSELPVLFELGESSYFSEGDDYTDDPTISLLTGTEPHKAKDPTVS

[5] = Shn3 3'UTR reporter inhibitors, dose response, cell-based, Clone20 osteoblasts, firefly luciferase, cherry-picked (AID 624132); format: functional;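 also: firefly luciferase luminescence from reporter carrying the Shn3 3'UTR in osteoblasts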
[6] = control 3'UTR Renilla luciferase suppression, dose response, counter-screen for Shn3 inhibitor project, cell-based, Clone20-Shn3RL, cherry-picked (AID 624133); format: functional
[7] = Luminescence Cell-Based Dose Confirmation HTS to Identify Activators of 5'UTR Stem-Loop Driven Alpha-Synuclein mRNA Translation in H4 Neuroglioblastoma Cells. [Related pubchem assays: 1829 (Project Summary), 1814 (Primary HTS)]; format: functional
[8] = Luminescence Cell-Based Dose Response HTS to Identify Activators of Luciferase Translation or Activity in H4 […] Cells. [Related pubchem assays: 1829 (Project Summary), 1814 (Primary HTS)]; format: functional
H4 = test: Luminescence Cell-Based Dose Response HTS to Identify Activators of 5'UTR Stem-Loop Driven Prion Protein mRNA Translation in H4 Neuroglioblastoma Cells. [Related pubchem assays: 1829 (Project Summary), 1814 (Primary HTS)]; format: functional; settings: Homo sapiens

Cytochrome P450 3A4, sequence (P08684 whole entry): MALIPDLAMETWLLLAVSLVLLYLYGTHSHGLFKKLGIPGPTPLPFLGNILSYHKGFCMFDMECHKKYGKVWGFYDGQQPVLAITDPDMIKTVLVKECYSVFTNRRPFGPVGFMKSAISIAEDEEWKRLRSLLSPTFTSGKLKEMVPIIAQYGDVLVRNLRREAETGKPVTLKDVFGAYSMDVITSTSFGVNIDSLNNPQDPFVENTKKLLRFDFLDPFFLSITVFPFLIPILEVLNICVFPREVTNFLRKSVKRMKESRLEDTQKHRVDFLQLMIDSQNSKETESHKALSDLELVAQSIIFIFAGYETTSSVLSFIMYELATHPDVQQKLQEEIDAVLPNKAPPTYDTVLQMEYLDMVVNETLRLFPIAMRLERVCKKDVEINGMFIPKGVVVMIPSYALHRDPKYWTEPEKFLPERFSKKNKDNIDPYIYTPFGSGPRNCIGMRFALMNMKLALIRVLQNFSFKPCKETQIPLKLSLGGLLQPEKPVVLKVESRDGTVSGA

SMILES: COc1ccc(Cn2c3ccc(OC)cc3c3nc4ccccc4nc32)cc1
- AC50 [1]: 13 µM (active)

SMILES: COc1ccc(-c2csc(NC(=O)Cn3nc(C)cc3C)n2)cc1
- AC50 (Cytochrome P450 3A4): 15.8 µM (inconclusive)
- AC50 (Cytochrome P450 2C9): 0.794 µM (inconclusive)

SMILES: COc1ccc(N/C=C2/C(=O)N(c3cccc(C)n3)C(=O)c3ccccc32)cc1
- EC50 [2]: > 300 µM (not active)
- EC50 [3]: > 300 µM (not active)

SMILES: O=C(/C=C/c1ccc2c(c1)OCO2)NCCSCc1ccc(Cl)cc1
- AC50 [1]: 0.922 µM (active)

SMILES: O=c1c(-c2cccs2)nc2cnc(N3CCOCC3)nc2n1Cc1ccc(F)cc1
- AC50 (Cytochrome P450 1A2): 20 µM (inconclusive)
- AC50 (Cytochrome P450 3A4): 2.51 µM (inconclusive)

SMILES: N#Cc1ccc(-c2ccc(F)cc2)nc1Sc1ccccc1
- AC50 (Cytochrome P450 2C19): 5.01 µM (inconclusive)
- AC50 (Cytochrome P450 3A4): 12.6 µM (inconclusive)
- AC50 (Cytochrome P450 2C9): 5.01 µM (inconclusive)

SMILES: COc1ccccc1NC(=O)Nc1nc(CC(=O)N2CCN(c3ccccc3)CC2)cs1
- EC50 [4]: > 260 µM (inactive)

SMILES: C/C(NCCN1CCCCC1)=C1/C(=O)NC(=O)N(c2ccc(Cl)cc2)C1=O
- EC50 [2]: > 300 µM (not active)
- EC50 [3]: > 300 µM (not active)

SMILES: COC(=O)CCCC1=CC2=CC(=O)C(C)(OC(=O)c3cnc4ccccc4n3)C(=O)C2=CO1 (stereo unspecified)
- EC50 [2]: 12.7 µM (active)
- EC50 [3]: 12.3 µM (active)

SMILES: CN1C(=O)c2cccc(NCCCCCCN3C(=O)c4ccccc4C3=O)c2C1=O
- AC50 [5]: 5.57 µM (active)
- AC50 [6]: 17.2 µM (active)

SMILES: COc1ccc(-c2sc3cc4c(cc3c2C#CC2(O)CCCCC2)OCO4)cc1
- AC50 [1]: 4.07 µM (active)

SMILES: O=c1c(-c2cccc(F)c2)nc2cncnc2n1C1CC1
- AC50 (Cytochrome P450 3A4): 12.6 µM (inconclusive)

SMILES: Cc1ccc(NS(=O)(=O)c2sc3ccc(Cl)cc3c2C)cc1
- AC50 [1]: 3.78 µM (active)

SMILES: Cc1onc(-c2ccccc2)c1NC(=O)N(CCC#N)Cc1ccccc1
- EC50 [4]: > 260 µM (inactive)

SMILES: CC(C)c1ccc(N2C(=O)CC(Sc3nc4ccccc4o3)C2=O)cc1 (stereo unspecified)
- AC50 (Cytochrome P450 1A2): 5.01 µM (inconclusive)
- AC50 (Cytochrome P450 3A4): 39.8 µM (inconclusive)

SMILES: CC(=O)c1ccc2c(c1)C1C=CCC1C(c1cc3c(cc1Br)OCO3)N2 (stereo unspecified)
- EC50 [2]: > 300 µM (not active)
- EC50 [3]: > 300 µM (not active)

SMILES: CCNc1ncc2nc(-c3ccc(OC)cc3)c(=O)n(-c3ccc(OC)cc3)c2n1
- AC50 (Cytochrome P450 3A4): 12.6 µM (inconclusive)

SMILES: O=C(CN1CCOCC1)N(c1ccccc1)c1ccc2ccccc2c1
- EC50 [4]: > 260 µM (inactive)

SMILES: Cc1ccn(CC(=O)N2CCCC(N3CCN(c4ccc(F)cc4)CC3)C2)n1 (stereo unspecified)
- EC50 [4]: > 260 µM (inactive)

SMILES: Cc1cc(C)cc(N2C(=O)/C(=C\c3ccc(N4CCN(C)CC4)o3)C(=O)NC2=S)c1
- EC50 [2]: > 300 µM (inconclusive)
- EC50 [3]: > 300 µM (inconclusive)

SMILES: COCCNC(=O)CSc1nc2cc(OC)c(OC)cc2c(=O)n1Cc1ccco1
- AC50 (Cytochrome P450 2C19): 20 µM (inconclusive)
- AC50 (Cytochrome P450 3A4): 3.55 µM (inconclusive)

SMILES: N#CCCn1c(=O)c(-c2ccc(F)cc2)nc2cnc(N3CCNCC3)nc21
- AC50 (Cytochrome P450 3A4): 25.1 µM (inconclusive)

SMILES: CC(C)NCC(O)COCc1ccc(Cl)cc1 (stereo unspecified)
- EC50 [4]: > 260 µM (inactive)

SMILES: CS(=O)(=O)N1CCC[C@@]2(CCN(C(=O)Nc3cccc(F)c3)C2)C1
- AC50 (Cytochrome P450 3A4): 12.6 µM (inconclusive)

SMILES: CCOC(=O)N1CCN(/C=C(\C#N)c2nc3ccccc3s2)CC1
- EC50 [2]: > 300 µM (not active)
- EC50 [7]: 38 µM (active)
- EC50 [8]: 14.7 µM (active)
- EC50 (H4): 37.5 µM (active)
- EC50 [3]: > 300 µM (not active)

SMILES: COCC1CCN(C(=O)CC2C(=O)NCCN2Cc2cccc(Oc3ccccc3)c2)CC1 (stereo unspecified)
- EC50 [2]: > 300 µM (not active)
- EC50 [3]: > 300 µM (not active)

SMILES: COc1ccc(O[C@H]2C=C[C@@H](c3ccccc3)O[C@H]2CO/N=C(/C)CCC(=O)OC[C@@H]2O[C@H](C#Cc3ccccc3)C=C[C@@H]2Oc2ccc(C)cc2)cc1
- AC50 (Cytochrome P450 2C19): 0.126 µM (inconclusive)
- AC50 (Cytochrome P450 3A4): 3.16 µM (inconclusive)

SMILES: CCN(CC)c1ccc(N/C=C2/C(=O)NC(=O)N(c3ccccc3)C2=O)cc1
- EC50 [2]: > 300 µM (not active)
- EC50 [3]: > 300 µM (not active)

SMILES: CC(=O)Nc1ccc(NC(=O)c2ccc(NS(=O)(=O)c3cc(C(C)(C)C)cc(C)c3C)cc2)cc1
- EC50 [4]: 12.5 µM (active)

SMILES: CCN(CC(=O)Nc1ccc(NC(C)=O)cc1)C(=O)c1ccccc1CCc1ccccc1
- AC50 [1]: > 195 µM (inactive)

SMILES: Cn1c(S)nnc1CNS(=O)(=O)c1ccc(Cl)cc1
- AC50 (Cytochrome P450 3A4): 15.8 µM (inconclusive)

SMILES: CC(c1ccccc1)N1CC(C(=O)N2CCN(c3ccc(F)cc3)CC2)CC1=O (stereo unspecified)
- EC50 [4]: > 260 µM (inactive)

SMILES: CC(NC(=O)c1ccc(Cl)cc1)c1nnc(SCc2ccc([N+](=O)[O-])cc2)n1C (stereo unspecified)
- AC50 (Cytochrome P450 2C19): 39.8 µM (inconclusive)
- AC50 (Cytochrome P450 1A2): 15.8 µM (inconclusive)
- AC50 (Cytochrome P450 3A4): 8.91 µM (inconclusive)
- AC50 (Cytochrome P450 2C9): 28.2 µM (inconclusive)

SMILES: Cc1c(/C=N/NC(=O)c2cc(O)nc(O)n2)c2ccccn2c1C(=O)c1ccccc1
- EC50 [2]: > 300 µM (not active)
- EC50 [3]: > 300 µM (inconclusive)

SMILES: CCOc1cccc2cc(C(N)=O)/c(=N/Cc3ccccc3)oc12
- AC50 (Cytochrome P450 3A4): 14.1 µM (inconclusive)

SMILES: COC(=O)c1ccc(C2Nc3ccc(/C(C)=N/NC(=O)C(OC)c4ccccc4)cc3C3C=CCC32)cc1 (stereo unspecified)
- EC50 [2]: > 300 µM (not active)
- EC50 [3]: 35.2 µM (active)

SMILES: O=C(CCC1CCCC1)/N=C1\SC2CS(=O)(=O)CC2N1c1ccccc1F (stereo unspecified)
- EC50 [4]: > 260 µM (inactive)

SMILES: Nc1nnnn1/N=C\c1ccc(Cl)c([N+](=O)[O-])c1
- EC50 [4]: > 260 µM (inactive)

SMILES: O=[N+]([O-])c1ccc(/N=C/C=C(\O)c2ccc(Br)cc2)cc1
- EC50 [2]: > 300 µM (not active)
- EC50 [3]: > 300 µM (not active)

SMILES: Cc1noc(NS(=O)(=O)c2cccc3c(N(C)C)cccc23)c1C [BMS-182874]
- AC50 (Cytochrome P450 3A4): 20 µM (inconclusive)

SMILES: CCCCN1CCCC[C@H]1C(=O)Nc1c(C)cccc1C [LEVOBUPIVACAINE]
- AC50 (Cytochrome P450 3A4): 10 µM (inconclusive)
